{
  "source": "patent EP1263429B1",
  "about": "“ANTIVIRAL THERAPY” (Universiteit Utrecht, priority 2000, dated 2001)",
  "type_in_all_cases": "cell-based",
  "key": {"HIV-1Ba-L [1]": {"test_system": "HIV-1Ba-L", "assay": "HIV-1 replication in acutely infected PBMC, p24-core antigen ELISA", "details": "for inhibition at 30 µM: 30 µM APHS", "method": "Peripheral blood mononuclear cell (PBMC) fractions are isolated from heparinised blood from HIV-1-, HIV-2- and hepatitis B- seronegative donors (Blood-bank, Utrecht, the Netherlands) by Ficoll-Isopaque gradient separation. Cells are washed twice, stimulated with 4 µg/ml phytohemagglutinin (PHA), and cultured in RPMI-1640 medium supplemented with 5 mM Hepes, 19 mM sodium bicarbonate, 10 µg/ml gentamicin, and 10% heat-inactivated fetal calf serum at a concentration of 1 x 10^6 cells/ml.\nHIV-1 strain Ba-L is grown to high titer in MDM. The 50% tissue culture infectious dose (TCID50) of the virus stock is determined by endpoint dilution with serial fourfold dilutions in a 96-well microtiter plate on MDM. HIV-1 strain AT is grown to high titer in PHA-stimulated PBMC. The TCID50 of the virus stock is determined by endpoint dilution with serial fourfold dilutions in a 96-well microtiter plate on PBMC.\nMDM, and PBMC, were incubated with HIV at a multiplicity of infection of 0.02, and 0.006 or 0.001, respectively. After two hours cells are washed to remove unbound virus and cultured for 4 to 7 days in different concentrations of the drug under investigation. On day 4, 5 and 7, 0.01 ml of supernatant is removed from the culture and virus in culture supernatant is inactivated in a final concentration of 0.05% empigen (Calbiochem-Novabiochem Co., La Jolla, CA). The presence of HIV-1 in the inactivated supernatant is monitored by checking for the p24-core antigen using the enzyme-linked immunosorbent assay (ELISA) system of John Moore.\n(A, B) Peripheral blood mononuclear cells (PBMC) were isolated from heparinized blood from HIV-1-, HIV-2-, and hepatitis B-seronegative donors and obtained on Ficoll-Hypaque density gradients. Cells were washed twice, stimulated with 5 µg/ml phytohemagglutinin (PHA), and cultured m RPMI-1640 medium supplemented with 5 mM Hepes, 19 mM sodium bicarbonate, 10 µg/mL gentamicin, and 10% heat-inactivated fetal calf serum (PBMC culture medium) at a concentration of 2 x 10^6 cells/ml. After 3 days of incubation stimulated PBMC were recovered from the flasks and infected for 2 hours with HIV-1Ba-L at a multiplicity of infection of 0.01. Afterwards, HIV-infected and mock-infected PBMC were washed twice to remove unbound virus. (A) PBMC were cultured at a density of 6 x 10^5 cells/well with different concentrations of APHS and after 5 days of incubation samples of culture supernatant were collected. (B) PBMC were cultured in suspension at a concentration of 2 x 10^6 cells/ml in Teflon flasks in PBMC culture medium. After 5 days of incubation PBMC were recovered from Teflon flasks, washed twice to remove unbound virus and cultured at a density of 6 x 10^5 PBMC / well with different concentrations of APHS. After 2 days of incubation samples of culture supernatant were collected. p24-core antigen production was quantified using the enzyme-linked immunosorbent assay (ELISA) system of John Moore. […] (C, D) PBMC were isolated from heparinized blood from HIV-1-, HIV-2-, and hepatitis B-seronegative donors and obtained on Ficoll-Hypaque density gradients. PBMC were washed twice and monocytes were purified by countercurrent centrifugal elutriation. Cells were >98% monocytes by criteria of cell morphology on May-Grünwald-Giemsa-stained cytosmears and by nonspecific esterase staining using alpha-naphtylacetate as substrate. […]"}, "HIV-1Ba-L [2]": {"test_system": "HIV-1Ba-L", "assay": "HIV-1 production by chronically infected PBMC, p24-core antigen ELISA", "details": "Fig 6B; APHS added 5 days after infection, 2 days of incubation", "method": "(§1) (A, B) Peripheral blood mononuclear cells (PBMC) were isolated from heparinized blood from HIV-1-, HIV-2-, and hepatitis B-seronegative donors and obtained on Ficoll-Hypaque density gradients. Cells were washed twice, stimulated with 5 µg/ml phytohemagglutinin (PHA), and cultured m RPMI-1640 medium supplemented with 5 mM Hepes, 19 mM sodium bicarbonate, 10 µg/mL gentamicin, and 10% heat-inactivated fetal calf serum (PBMC culture medium) at a concentration of 2 x 10^6 cells/ml. After 3 days of incubation stimulated PBMC were recovered from the flasks and infected for 2 hours with HIV-1Ba-L at a multiplicity of infection of 0.01. Afterwards, HIV-infected and mock-infected PBMC were washed twice to remove unbound virus. […] (B) PBMC were cultured in suspension at a concentration of 2 x 10^6 cells/ml in Teflon flasks in PBMC culture medium. […] After 2 days of incubation samples of culture supernatant were collected. p24-core antigen production was quantified using the enzyme-linked immunosorbent assay (ELISA) system of John Moore. […] (C, D) PBMC were isolated from heparinized blood from HIV-1-, HIV-2-, and hepatitis B-seronegative donors and obtained on Ficoll-Hypaque density gradients. […] After 2 days of incubation samples of culture supernatant were collected. p24-core antigen production was quantified using the enzyme-linked immunosorbent assay (ELISA) system of John Moore. […]"}, "HIV-1Ba-L [3]": {"test_system": "HIV-1Ba-L", "assay": "HIV-1 production by chronically infected MDM, p24-core antigen ELISA", "details": "Fig 6D; APHS added 5 days after infection, 2 days of incubation", "method": "as §1"}, "HXB2": {"test_system": "HXB2", "assay": "IC50 of APHS for HIV-1 strains (Table 2), sensitive strain", "details": "Human immunodeficiency virus 1, HXB2, read-out: IC50 of APHS"}, "HIV-1": {"test_system": "HIV-1", "assay": "IC50 determination of an anti-viral (Table 3)", "details": "Human immunodeficiency virus 1"}},
  "note": "Like-named read-outs stand apart in the source and are kept apart here.",
  "data": [
    {"smiles": "CCCCC#CCSc1ccccc1OC(C)=O", "note": "[APHS, o-(acetoxy-phenyl)hept-2-ynyl sulphide]", "values": [
      {"measurement": "APHS concentrations that inhibit HIV-1 production", "setting": "HIV-1Ba-L [1]; Fig 4, PBMC infected with HIV-1AT or HIV-1BaL, 4 and 5 days of incubation", "value": "above 1 µM"},
      {"measurement": "APHS concentrations that inhibit HIV-1Ba-L replication", "setting": "HIV-1Ba-L [1]; Fig 6A, acute infection of PBMC, multiplicity of infection 0.01, 5 days of incubation", "value": "above 3 µM"},
      {"measurement": "inhibition at 30 µM", "setting": "HIV-1Ba-L [1]; Human immunodeficiency virus 1, 120 h, Fig 6A, acute infection of PBMC, multiplicity of infection 0.01, 5 days", "value": 100, "unit": "%"},
      {"measurement": "inhibition at 1 µM", "setting": "HIV-1Ba-L [1]; Human immunodeficiency virus 1, PBMC, read-out: inhibition of HIV-1BaL production", "value": 50, "unit": "%"},
      {"measurement": "inhibition at 30 µM", "setting": "HIV-1Ba-L [1]; Human immunodeficiency virus 1, Fig 4, PBMC, read-out: inhibition of HIV-1BaL replication", "value": 100, "unit": "%"},
      {"measurement": "inhibition of HIV-1 production of chronically infected PBMCs", "setting": "HIV-1Ba-L [2]", "value": "does not inhibit"},
      {"measurement": "inhibition of HIV-1 production by chronically infected MDM", "setting": "HIV-1Ba-L [3]", "value": "does not inhibit"},
      {"measurement": "IC50", "setting": "HXB2", "value": "12.6 ± 2.3", "unit": "µM"},
      {"measurement": "IC50", "setting": "HIV-1", "value": 10, "unit": "µM"}
    ]}
  ]
}
